Entries after “also recorded” stand apart in the source; their conditions may differ.

The target of one test is T1, MAO-B (Homo sapiens, UniProt P27338).
T1 construct: purchased
T1 sequence (P27338 1-520): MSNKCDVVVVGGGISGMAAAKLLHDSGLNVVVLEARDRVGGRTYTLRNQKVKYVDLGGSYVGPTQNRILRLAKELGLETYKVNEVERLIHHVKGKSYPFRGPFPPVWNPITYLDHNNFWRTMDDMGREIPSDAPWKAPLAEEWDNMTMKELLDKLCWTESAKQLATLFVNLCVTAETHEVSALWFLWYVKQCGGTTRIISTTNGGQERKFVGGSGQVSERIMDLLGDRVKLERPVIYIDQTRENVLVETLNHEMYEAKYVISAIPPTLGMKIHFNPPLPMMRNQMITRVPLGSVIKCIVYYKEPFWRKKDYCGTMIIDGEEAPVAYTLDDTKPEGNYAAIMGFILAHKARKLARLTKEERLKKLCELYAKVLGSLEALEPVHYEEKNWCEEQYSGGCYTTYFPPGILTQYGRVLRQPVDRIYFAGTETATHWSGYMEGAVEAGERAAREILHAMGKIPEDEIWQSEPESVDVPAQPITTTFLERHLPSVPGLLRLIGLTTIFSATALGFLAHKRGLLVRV
As to the kind of experiment: MAO-Glo luminescent assay, MAO-B inhibition. The class given is biochemical. As to conditions: compared with myosmine, anatabine, anabasine, nornicotine; FIG. 2. An excerpt:
(§1) This example describes experiments for determining monoamine oxidase (MAO) inhibition for isomyosmine and other alkaloids. MAOs are enzymes located on the outer membrane of mitochondria and are involved in the catabolism of monoamine neurotransmitters. There are two well-characterized isoenzymes: MAO-A, which predominantly catabolizes serotonin and norepinephrine, and MAO-B, which preferentially catabolizes benzylamine and phenylethylamine. Dopamine and tyramine are metabolized by both isoforms.
(§2) To detect the activity of MAO, a luminescent method (MAO-Glo Assay kit, from Promega, Cat #V1401) was used. In this method, a MAO substrate (a derivative of beetle luciferin provided in the kit) is mixed with the compound to be tested (in this case, myosmine and control compounds). Then, the MAO enzymes (either A or B, purchased separately) are added to the mixture and incubated with the reaction for 1 hour at room temperature. The MAO enzymes, if not inhibited by the test compound, will convert the substrate into methyl ester luciferin. Finally, a luciferin detection reagent (provided by the kit) is added (20 minutes at room temperature) to stop the MAO reaction and convert methyl ester luciferin into D-luciferin. […] The luminescent signal is measured and recorded using a luminometer. […]

The target of a further test is T2, MAO-A (Homo sapiens, UniProt P21397).
T2 construct: purchased
T2 sequence (P21397 1-527): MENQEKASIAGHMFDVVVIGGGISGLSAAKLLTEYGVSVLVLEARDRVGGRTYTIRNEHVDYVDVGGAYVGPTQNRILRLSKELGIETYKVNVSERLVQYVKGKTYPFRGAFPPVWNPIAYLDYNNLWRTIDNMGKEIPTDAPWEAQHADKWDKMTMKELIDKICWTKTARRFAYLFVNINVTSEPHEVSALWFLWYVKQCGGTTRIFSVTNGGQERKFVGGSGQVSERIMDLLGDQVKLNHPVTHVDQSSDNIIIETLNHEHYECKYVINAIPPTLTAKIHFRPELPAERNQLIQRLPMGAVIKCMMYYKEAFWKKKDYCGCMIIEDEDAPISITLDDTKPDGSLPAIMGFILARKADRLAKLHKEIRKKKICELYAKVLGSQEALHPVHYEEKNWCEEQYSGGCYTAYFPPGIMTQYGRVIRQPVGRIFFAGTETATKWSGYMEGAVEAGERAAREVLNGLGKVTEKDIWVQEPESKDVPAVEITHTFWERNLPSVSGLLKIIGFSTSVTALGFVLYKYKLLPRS
As to the kind of experiment: MAO-Glo luminescent assay, MAO-A inhibition. The class given is biochemical. Particulars: FIG. 1.
From the text: as §1, §2

A further test relates to hydrogen sulfide (H2S). As to the kind of experiment: Serum hydrogen sulfide (H2S) by ELISA in mice with EAE. As to conditions: 5 mg/ml isomyosmine in water, FIG. 3A-3B. The class given is in vivo. The protocol:
This example describes an experiment to determine whether treatments with isomyosmine have an effect on hydrogen sulfide (H2S) quantity in mice with experimental autoimmune encephalomyelitis (EAE). Mice were immunized for EAE on day 0 and treated with either vehicle control or 5 mg/ml isomyosmine in water, for the duration of the experiment. Blood was collected, serum was separated and assayed for H2S via Kamiya Biomedical ELISA kit per the manufacturer's instructions. Two different experiments were performed. In the first experiment, blood was collected at the end of disease course. In the second experiment, blood was collected at day 12 after immunization.
In general terms: In an ELISA, binding on a coated surface is turned into a signal by an enzyme label.

The subject of test [1] is herpes labialis (cold sores), a type of herpes simplex. As to the kind of experiment: Treatment of herpes labialis (cold sores) in an individual. The class given is in vivo, human. As to conditions: 100 mg dose upon first feeling the onset of a cold sore. The method, then: This example illustrates administering isomyosmine to treat herpes labialis (cold sores), a type of herpes simplex occurring on the lip. An individual who experiences periodic outbreaks of herpes labialis was administered a 100 mg dose of isomyosmine upon first feeling the onset of a cold sore.

The test system of test [2] is purified nitrate reductase. As to the kind of experiment: Cell-free nitrate reductase inhibition, Griess reaction. The test is classed as biochemical. The method, then: Standard concentrations of nitrate were incubated with purified nitrate reductase and vehicle or isomyosmine, and the Griess reaction was used to measure nitrite. Several concentrations of nitrate and two concentrations of isomyosmine were used.
For orientation: Griess reagent forms a coloured azo dye with nitrite.

In general, inhibition refers to the share of the control response that was lost under treatment. Turning to `C1=NC(c2cccnc2)CC1` (centres unmarked) [isomyosmine, 3-(3,4-dihydro-2H-pyrrol-2-yl)-pyridine], the “inhibition of the activity of MAO-B (in words)” value at MAO-B was “most potent among the five alkaloids tested; also recorded: potent inhibitor”. The inhibition at 2000 µM on MAO-A (2 mM concentration (2,000 micromolar), read-out: inhibition of the enzymatic activity of MAO-A) was around 50%. Also, at MAO-A (compared with myosmine, anatabine, anabasine, nornicotine), the “inhibition of the enzymatic activity of MAO-A (in words, curve position)” value is reported as “most potent of the five; also recorded: potent inhibitor”. Moreover, the “H2S in serum as measured by ELISA” value in the test with hydrogen sulfide (H2S) (blood collected at day 12 after immunization) and in the test on hydrogen sulfide (H2S) (blood collected at the end of disease course) was “trend toward an increase in H2S” throughout. For the same molecule, in test [1], the “prevention of cold sore outbreak” value was “effective to prevent the outbreak of the cold sore”. The “inhibition of nitrate reductase” value in test [2] (high amount of substrate, system saturated (FIG. 4C)) is listed as “inhibitory effect was reduced”; in test [2] (low amount of substrate (FIG. 4A)), “most efficiently”.
